Test results reported in ChEMBL document CHEMBL1201862, “PubChem BioAssay data set” (2004).
Calls of active or inactive are those of the source.

What was measured:
A-375 [1] = experiment: MITF: Counter assay: A375 proliferation Measured in Cell-Based System Using Plate Reader - 2084-03_Inhibitor_Dose_DryPowder_Activity. [Related pubchem assays (depositor defined):AID488944]; type: functional; settings: Homo sapiens
A-375 [2] = experiment: A375 melanoma cell viability reduction, dose response, counter-screen for MITF modulator project, cherry-pick samples, set 2 (AID 540335); type: functional, cell-based; settings: Homo sapiens
[3] = target: T1, Microphthalmia-associated transcription factor (Homo sapiens, UniProt O75030); experiment: TRPM1 promoter luciferase signal decrease, dose response, MITF inhibitor project, cell-based, SK-MEL-5, cherry-picked, set 3 (AID 493073); type: functional
T1 sequence (O75030 whole entry): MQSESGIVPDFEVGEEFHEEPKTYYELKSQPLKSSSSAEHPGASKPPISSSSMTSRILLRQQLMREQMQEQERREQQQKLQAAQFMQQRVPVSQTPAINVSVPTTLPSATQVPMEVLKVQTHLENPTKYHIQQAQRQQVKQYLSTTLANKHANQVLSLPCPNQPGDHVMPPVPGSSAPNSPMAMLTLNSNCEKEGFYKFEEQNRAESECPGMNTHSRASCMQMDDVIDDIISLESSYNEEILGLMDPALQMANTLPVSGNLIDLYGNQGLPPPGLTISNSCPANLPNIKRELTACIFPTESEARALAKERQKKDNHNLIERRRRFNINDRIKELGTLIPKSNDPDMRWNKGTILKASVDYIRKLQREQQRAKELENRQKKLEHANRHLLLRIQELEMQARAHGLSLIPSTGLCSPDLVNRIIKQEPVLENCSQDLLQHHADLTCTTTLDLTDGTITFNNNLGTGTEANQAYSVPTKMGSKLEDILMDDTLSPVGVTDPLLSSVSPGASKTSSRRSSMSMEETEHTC

[4] = Luminescence Cell-Based Dose Response HTS to Identify Inhibitors of 5'UTR Stem-Loop Driven Prion Protein mRNA Translation in H4 Neuroglioblastoma Cells. [Related pubchem assays: 1827 (Project Summary), 1813 (Primary HTS)]; type: functional
[5] = inhibitors of firefly luciferase expression or activity, dose response, H4 neuroglioma cells, luminescence (AID 1990); type: functional, cell-based
[6] = inhibitors of SNCA 5'UTR-driven reporter translation, confirmation, H4 neuroglioma cells, luminescence (AID 1988); type: functional, cell-based
HeLa = experiment: HeLa cell cytotoxicity, dose response, cytotoxicity control, 48 h, plate reader, cherry-picks (AID 504942); type: functional, cell-based; settings: Homo sapiens
[7] = target: T2, Acyl-homoserine lactone acylase PvdQ (Pseudomonas aeruginosa (strain LESB58), UniProt Q9I194); experiment: P. aeruginosa PvdQ acylase inhibitors, dose response, biochemical, fluorescence, plate reader and imaging, cherry-picks (AID 493231)
T2 sequence (Q9I194 whole entry): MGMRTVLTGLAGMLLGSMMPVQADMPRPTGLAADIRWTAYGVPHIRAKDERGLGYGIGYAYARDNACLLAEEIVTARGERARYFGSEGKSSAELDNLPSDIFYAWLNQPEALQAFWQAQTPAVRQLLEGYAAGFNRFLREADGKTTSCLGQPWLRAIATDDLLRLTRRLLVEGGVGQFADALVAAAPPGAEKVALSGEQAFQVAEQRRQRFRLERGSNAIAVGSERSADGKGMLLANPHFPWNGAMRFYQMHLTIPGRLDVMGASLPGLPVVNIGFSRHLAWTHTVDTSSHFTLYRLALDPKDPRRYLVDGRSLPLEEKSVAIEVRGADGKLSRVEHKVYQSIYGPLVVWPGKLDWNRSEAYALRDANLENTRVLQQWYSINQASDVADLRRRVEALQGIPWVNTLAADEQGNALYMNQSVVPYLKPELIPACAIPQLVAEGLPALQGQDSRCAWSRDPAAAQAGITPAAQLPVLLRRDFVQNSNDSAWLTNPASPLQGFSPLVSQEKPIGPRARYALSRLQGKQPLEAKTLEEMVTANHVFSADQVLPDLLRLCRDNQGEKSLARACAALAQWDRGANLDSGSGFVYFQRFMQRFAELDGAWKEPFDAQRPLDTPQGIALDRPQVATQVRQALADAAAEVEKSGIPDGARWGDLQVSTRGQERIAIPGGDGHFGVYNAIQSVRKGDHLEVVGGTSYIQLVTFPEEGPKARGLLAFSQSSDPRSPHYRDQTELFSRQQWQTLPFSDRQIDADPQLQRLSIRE

HEK293 [8] = experiment: cytotoxicity in HEK293T NF-kB-Luc cells, SAR follow-up, cytotoxicity control for NF-kB activator project, cell-based, resazurin fluorescence (AID 493251); type: functional; settings: Homo sapiens
Jurkat = experiment: SAR Analysis of small molecule inhibitors of […] specific antigen receptor-induced NF-kB activation in a Jurkat cell line using a luminescence assay - Set 3. [Related pubchem assays (depositor defined):AID435022, AID435025, AID465]; type: functional, cell-based; settings: Homo sapiens
HEK293 [9] = experiment: SAR Analysis of small molecule inhibitors of B-cell specific antigen receptor-induced NF-kB activation in a HEK-293T cell line using a luminescence assay - Set 2. [Related pubchem assays (depositor defined):AID435022, AID435025, AID489021]; type: functional, cell-based; settings: Homo sapiens
[10] = target: Dual specificity protein kinase CLK1 (Homo sapiens, UniProt P49759); experiment: CLK1 kinase inhibitors, off-target check, dose response, selectivity assay for Dyrk1A inhibitor project, biochemical, cherry-picked samples (AID 588811)
Dual specificity protein kinase CLK1, sequence (P49759 whole entry, the tested form may be a part): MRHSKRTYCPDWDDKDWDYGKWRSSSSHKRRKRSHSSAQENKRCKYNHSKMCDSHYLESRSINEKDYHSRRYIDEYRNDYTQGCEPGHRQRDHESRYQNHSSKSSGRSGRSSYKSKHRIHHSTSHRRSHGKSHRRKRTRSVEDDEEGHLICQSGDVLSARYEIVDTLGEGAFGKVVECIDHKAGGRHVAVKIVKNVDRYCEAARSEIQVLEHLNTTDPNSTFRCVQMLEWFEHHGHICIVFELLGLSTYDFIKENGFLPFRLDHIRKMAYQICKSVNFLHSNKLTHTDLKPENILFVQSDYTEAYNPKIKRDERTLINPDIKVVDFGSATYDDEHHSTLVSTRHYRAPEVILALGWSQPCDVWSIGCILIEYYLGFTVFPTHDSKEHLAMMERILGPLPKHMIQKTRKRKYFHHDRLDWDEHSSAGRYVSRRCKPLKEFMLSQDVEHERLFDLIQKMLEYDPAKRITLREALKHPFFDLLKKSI

Hexokinase-1 = Hexokinase-1 (Homo sapiens, UniProt P19367); experiment: SAR analysis of small molecule inhibitors of hexokinase domain containing I (HKDC1) in the hexokinase 1 selectivity assay. [Related pubchem assays (depositor defined):AID493160, AID493190]; type: functional
Hexokinase-1, sequence (P19367 whole entry, the tested form may be a part): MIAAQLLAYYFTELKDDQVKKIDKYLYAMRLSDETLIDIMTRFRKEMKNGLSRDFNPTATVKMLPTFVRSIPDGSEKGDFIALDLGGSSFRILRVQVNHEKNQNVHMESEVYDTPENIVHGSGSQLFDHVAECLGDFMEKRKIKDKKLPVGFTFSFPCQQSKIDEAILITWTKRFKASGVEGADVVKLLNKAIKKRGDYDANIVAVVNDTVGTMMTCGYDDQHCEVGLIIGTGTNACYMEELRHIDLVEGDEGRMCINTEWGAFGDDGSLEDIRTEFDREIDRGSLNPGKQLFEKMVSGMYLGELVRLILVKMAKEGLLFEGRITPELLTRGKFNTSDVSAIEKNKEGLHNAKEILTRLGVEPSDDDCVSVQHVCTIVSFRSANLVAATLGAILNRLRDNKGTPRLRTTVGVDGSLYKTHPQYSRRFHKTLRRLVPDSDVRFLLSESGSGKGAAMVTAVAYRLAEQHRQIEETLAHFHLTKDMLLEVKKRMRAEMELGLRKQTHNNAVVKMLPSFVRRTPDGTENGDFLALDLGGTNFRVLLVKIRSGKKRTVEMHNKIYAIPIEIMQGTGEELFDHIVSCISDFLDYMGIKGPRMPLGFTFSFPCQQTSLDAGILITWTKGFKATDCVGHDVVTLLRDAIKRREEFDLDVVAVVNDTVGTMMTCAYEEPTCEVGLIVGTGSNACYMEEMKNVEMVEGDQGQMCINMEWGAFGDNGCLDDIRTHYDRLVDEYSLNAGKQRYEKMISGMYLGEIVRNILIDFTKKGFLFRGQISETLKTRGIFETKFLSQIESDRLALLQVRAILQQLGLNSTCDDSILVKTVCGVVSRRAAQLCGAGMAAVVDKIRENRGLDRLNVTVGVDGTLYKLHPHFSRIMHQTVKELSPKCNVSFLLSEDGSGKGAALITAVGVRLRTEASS

Hexokinase HKDC1 = Hexokinase HKDC1 (Homo sapiens, UniProt Q2TB90); experiment: SAR analysis of small molecule inhibitors of hexokinase domain containing I (HKDC1). [Related pubchem assays (depositor defined):AID493160, AID493190]; type: functional
SUMO-activating enzyme [11] = target: T3, SUMO-activating enzyme (Homo sapiens, UniProt Q9UBT2); experiment: inhibitors of in vitro SUMOylation cascade, primary screen, biochemical, HTRF, uHTS (AID 2006); type: protein-complex assay
T3 sequence (Q9UBE0 whole entry): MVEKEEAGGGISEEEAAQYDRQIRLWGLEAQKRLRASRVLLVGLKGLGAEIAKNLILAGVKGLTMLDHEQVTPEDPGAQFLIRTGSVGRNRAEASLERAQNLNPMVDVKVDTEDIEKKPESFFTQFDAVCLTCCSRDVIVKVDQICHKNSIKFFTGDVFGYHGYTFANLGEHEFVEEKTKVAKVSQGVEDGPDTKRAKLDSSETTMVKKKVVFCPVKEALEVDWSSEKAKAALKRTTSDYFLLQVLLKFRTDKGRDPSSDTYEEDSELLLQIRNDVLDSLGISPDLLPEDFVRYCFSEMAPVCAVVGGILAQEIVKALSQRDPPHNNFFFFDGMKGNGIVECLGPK
T3 sequence (Q9UBT2 whole entry): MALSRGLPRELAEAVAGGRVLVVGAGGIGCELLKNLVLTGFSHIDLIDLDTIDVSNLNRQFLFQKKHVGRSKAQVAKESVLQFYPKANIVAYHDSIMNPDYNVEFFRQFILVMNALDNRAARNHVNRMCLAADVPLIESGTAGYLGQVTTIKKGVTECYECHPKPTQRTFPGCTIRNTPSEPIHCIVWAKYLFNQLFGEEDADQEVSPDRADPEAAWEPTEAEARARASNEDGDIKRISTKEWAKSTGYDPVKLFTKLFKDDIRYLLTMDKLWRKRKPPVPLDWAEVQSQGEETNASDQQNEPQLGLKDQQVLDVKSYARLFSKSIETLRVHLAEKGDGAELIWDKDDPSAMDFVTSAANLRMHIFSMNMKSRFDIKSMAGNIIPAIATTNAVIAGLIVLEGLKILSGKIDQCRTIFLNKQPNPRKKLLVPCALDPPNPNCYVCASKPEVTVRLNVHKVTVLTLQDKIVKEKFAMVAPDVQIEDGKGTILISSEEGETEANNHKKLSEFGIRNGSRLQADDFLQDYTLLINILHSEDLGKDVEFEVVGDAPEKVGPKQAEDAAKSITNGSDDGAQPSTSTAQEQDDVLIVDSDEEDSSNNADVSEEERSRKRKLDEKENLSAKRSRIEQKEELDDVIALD

[12] = NIH-3T3 fibroblast cytotoxicity, dose response, cytotoxicity control, cell-based, fluorescence, Alamar Blue, secondary assay (AID 2327); type: functional;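 also: NIH-3T3 mouse fibroblasts cultured with fluconazole at 8 µg/mL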
Vero = Vero cell cytotoxicity, cytotoxicity control for flavivirus capping enzyme inhibitors (AID 588742); type: functional; settings: Chlorocebus sabaeus
[13] = target: Serine/threonine-protein phosphatase (Candida dubliniensis (strain CD36 / CBS 7987 / NCPF 3949 / NRRLY-17841) (Yeast), UniProt B9W6M3); experiment: calcineurin pathway inhibitors in yeast reporter, dose response, S. cerevisiae, CDRE-lacZ, luminescence, secondary (AID 2388); type: functional, cell-based;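 also: yeast reporter cells carrying a calcineurin-responsive lacZ construct stimulated with calcium chloride; luminescent beta-galactosidase reporter signal in whole cells rather than isolated phosphatase activity; potency for inhibition where a drop in reporter signal means calcineurin blockade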
Serine/threonine-protein phosphatase, sequence (B9W6M3 whole entry): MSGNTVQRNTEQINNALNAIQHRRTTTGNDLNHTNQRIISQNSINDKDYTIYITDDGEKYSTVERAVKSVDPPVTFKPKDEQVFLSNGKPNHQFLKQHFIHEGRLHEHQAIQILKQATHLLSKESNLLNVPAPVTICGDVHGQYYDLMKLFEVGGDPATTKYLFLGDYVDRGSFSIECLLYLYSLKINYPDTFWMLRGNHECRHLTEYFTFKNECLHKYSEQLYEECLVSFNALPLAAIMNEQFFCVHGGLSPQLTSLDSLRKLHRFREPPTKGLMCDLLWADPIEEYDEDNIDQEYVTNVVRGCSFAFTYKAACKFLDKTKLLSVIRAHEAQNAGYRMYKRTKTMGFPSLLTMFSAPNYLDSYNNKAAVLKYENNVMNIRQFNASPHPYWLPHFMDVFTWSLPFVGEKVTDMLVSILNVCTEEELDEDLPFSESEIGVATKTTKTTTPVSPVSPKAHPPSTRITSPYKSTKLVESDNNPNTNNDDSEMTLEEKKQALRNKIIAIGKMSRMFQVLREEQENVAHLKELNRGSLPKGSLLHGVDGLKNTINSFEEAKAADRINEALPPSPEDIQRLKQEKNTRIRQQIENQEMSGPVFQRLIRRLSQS

SUMO-activating enzyme [14] = target: T3, SUMO-activating enzyme; experiment: SUMOylation inhibitor hit validation, confirmation, SUMOylation inhibitor project, biochemical, AlphaScreen (AID 2018); type: functional
[15] = target: T4, Mannose-6-phosphate isomerase (Homo sapiens, UniProt P34949); experiment: human PMI inhibitors, high substrate, primary screen, biochemical, fluorescence intensity, high mannose 6-phosphate (AID 1220)
T4 sequence (P34949 whole entry): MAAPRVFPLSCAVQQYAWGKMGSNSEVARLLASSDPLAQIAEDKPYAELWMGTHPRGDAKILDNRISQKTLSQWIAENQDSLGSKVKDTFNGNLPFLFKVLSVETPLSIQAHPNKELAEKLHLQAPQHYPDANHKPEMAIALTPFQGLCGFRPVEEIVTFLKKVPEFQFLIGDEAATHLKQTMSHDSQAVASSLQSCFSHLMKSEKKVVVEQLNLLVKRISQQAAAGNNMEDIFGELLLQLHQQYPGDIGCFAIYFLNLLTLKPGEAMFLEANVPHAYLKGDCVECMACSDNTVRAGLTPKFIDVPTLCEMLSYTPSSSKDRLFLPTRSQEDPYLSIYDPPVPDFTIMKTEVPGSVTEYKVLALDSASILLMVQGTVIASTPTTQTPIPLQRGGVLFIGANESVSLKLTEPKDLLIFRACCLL

[16] = target: T5, Histone-lysine N-methyltransferase NSD2 (Homo sapiens, UniProt O96028); type: biochemical
T5 sequence (O96028 whole entry): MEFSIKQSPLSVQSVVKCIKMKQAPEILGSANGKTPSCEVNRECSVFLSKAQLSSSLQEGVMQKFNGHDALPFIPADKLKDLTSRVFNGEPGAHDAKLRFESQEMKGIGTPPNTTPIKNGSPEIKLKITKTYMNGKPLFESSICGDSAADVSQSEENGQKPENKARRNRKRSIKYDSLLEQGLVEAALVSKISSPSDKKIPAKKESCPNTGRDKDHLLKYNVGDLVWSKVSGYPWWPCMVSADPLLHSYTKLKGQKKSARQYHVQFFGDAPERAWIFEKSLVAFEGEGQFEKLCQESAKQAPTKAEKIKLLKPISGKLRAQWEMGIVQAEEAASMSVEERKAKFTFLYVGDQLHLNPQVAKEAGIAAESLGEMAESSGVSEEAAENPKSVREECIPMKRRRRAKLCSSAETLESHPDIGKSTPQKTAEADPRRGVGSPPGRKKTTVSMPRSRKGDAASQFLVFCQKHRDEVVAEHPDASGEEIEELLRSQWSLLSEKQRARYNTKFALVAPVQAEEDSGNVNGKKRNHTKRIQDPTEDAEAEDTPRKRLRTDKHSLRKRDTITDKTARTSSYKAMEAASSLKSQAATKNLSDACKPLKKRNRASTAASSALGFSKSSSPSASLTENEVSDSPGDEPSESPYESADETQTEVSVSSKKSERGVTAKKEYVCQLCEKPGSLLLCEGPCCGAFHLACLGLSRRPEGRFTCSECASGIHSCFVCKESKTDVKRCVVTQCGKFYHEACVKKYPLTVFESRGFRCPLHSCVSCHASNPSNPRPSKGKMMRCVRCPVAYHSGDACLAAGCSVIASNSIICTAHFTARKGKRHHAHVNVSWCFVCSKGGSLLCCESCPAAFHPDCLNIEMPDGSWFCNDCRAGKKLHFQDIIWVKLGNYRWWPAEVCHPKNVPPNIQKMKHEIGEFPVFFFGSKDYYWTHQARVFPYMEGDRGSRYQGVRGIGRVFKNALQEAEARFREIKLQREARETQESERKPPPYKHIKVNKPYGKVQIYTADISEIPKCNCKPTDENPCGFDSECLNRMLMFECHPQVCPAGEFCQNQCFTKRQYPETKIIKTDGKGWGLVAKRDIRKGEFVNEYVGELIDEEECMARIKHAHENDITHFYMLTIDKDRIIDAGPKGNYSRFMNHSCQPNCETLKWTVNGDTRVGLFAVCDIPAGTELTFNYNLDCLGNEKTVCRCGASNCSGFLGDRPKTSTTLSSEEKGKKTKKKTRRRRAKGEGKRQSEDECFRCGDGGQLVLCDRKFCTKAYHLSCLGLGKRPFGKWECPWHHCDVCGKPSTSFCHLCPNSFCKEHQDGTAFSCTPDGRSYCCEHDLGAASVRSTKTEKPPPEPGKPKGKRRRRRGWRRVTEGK

[17] = C. albicans growth with fluconazole, confirmation, fluorescence, retest (AID 2467); type: functional, cell-based
[18] = target: ATP-dependent molecular chaperone HSP82 (Candida albicans (strain WO-1) (Yeast), UniProt C4YTQ8); experiment: loss of DOC-induced GRE-beta-galactosidase reporter signal, dose response, Hsp90 inhibitor project, S. cerevisiae, luminescence (AID 2400); type: functional, cell-based;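 also: beta-galactosidase luminescence from glucocorticoid response element reporter as proxy for Hsp90 function; inhibitor potency where signal loss means Hsp90 inhibition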
ATP-dependent molecular chaperone HSP82, sequence (C4YTQ8 whole entry): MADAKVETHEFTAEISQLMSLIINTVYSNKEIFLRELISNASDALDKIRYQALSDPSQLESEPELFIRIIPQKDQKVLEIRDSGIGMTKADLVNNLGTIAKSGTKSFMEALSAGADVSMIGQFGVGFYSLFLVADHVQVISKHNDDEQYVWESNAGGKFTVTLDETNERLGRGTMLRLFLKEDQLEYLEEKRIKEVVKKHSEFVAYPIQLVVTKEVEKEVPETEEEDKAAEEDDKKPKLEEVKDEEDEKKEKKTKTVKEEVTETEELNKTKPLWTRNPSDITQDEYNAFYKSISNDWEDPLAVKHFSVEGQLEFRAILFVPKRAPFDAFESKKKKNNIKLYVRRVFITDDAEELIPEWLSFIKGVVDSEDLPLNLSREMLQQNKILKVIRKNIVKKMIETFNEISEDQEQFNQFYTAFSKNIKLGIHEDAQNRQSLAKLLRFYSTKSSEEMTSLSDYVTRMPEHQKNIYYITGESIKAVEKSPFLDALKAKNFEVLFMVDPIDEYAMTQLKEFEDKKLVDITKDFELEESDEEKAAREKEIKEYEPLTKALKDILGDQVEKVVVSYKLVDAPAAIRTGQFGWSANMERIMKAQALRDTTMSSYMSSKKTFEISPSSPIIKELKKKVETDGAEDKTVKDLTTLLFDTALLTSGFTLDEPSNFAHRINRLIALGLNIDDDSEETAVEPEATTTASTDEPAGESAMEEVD

[19] = target: Voltage-gated inwardly rectifying potassium channel KCNH2 (Homo sapiens, UniProt Q12809); settings: Potency;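 also: confirmatory quantitative high-throughput screen measuring inhibition of hERG channel activity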
Voltage-gated inwardly rectifying potassium channel KCNH2, sequence (Q12809 whole entry): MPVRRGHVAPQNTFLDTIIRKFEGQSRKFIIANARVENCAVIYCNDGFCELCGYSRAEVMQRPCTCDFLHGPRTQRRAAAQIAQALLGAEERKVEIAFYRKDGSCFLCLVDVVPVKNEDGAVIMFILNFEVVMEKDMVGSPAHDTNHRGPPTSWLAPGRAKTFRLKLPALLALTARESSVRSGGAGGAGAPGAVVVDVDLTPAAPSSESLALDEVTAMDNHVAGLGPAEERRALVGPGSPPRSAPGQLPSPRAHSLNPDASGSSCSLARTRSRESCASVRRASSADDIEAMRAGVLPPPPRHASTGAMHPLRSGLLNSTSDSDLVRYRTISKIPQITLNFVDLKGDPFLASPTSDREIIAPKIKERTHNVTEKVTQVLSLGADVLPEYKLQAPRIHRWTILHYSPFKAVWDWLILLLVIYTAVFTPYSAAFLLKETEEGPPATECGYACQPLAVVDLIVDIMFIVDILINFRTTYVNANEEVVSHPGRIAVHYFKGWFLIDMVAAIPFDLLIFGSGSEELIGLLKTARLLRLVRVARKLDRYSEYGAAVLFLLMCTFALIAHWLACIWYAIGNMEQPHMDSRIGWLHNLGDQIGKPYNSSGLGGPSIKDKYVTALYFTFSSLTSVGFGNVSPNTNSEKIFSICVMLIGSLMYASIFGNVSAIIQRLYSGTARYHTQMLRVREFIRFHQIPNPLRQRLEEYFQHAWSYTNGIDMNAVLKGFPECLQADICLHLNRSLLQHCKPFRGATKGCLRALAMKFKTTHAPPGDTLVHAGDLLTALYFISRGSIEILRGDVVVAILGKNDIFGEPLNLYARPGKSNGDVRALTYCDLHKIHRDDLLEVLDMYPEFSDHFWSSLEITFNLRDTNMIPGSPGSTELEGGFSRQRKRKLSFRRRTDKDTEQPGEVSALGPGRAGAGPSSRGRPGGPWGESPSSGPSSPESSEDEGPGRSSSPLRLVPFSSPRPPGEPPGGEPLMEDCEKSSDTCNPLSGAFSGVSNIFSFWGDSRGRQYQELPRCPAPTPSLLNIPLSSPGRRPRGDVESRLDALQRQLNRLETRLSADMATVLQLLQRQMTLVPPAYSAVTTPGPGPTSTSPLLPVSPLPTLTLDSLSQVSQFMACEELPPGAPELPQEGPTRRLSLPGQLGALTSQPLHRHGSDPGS

CC(=O)c1ccc(S(=O)(=O)N2CCN(C(=O)/C=C/c3ccc4ccccc4n3)CC2)cc1
AC50 (A-375 [1]): > 35 µM (active) | AC50 (A-375 [2]): > 35 µM (active) | AC50 [3]: 12 µM (active) | EC50 [4]: 11.8 µM (active) | EC50 [5]: 13.4 µM (active) | EC50 [6]: 10.3 µM (active)

COc1ccc(-c2cc3ncccc3cn2)cc1
AC50 (HeLa): 72.9 µM (active) | AC50 [7]: 7.13 µM (active)

CCOc1ccc(-c2nc(CSCC(=O)NCC3CCCO3)c(C)o2)cc1 (centres undefined)
IC50 (HEK293 [8]): > 80 µM (inactive) | IC50 (Jurkat): > 80 µM (inactive) | IC50 (HEK293 [9]): 67.7 µM (inactive)

Clc1ccc(CNc2nccc(-c3ccc4c(c3)OCCO4)n2)cc1Cl
AC50 [10]: 0.0206 µM (active)

Cc1ccc(S(=O)(=O)Nc2cc(SCCC(=O)O)c(O)c3ccccc23)cc1
IC50 (Hexokinase-1): > 80 µM (inactive) | IC50 (Hexokinase HKDC1): 10 µM (active)

CN(C)c1cc(N/N=C/c2ccc(Cl)cc2)nc(N(C)C)n1
IC50 (SUMO-activating enzyme [11]): 14.2 µM (active) | EC50 [12]: > 160 µM (inactive) | CC50 (Vero): > 40 µM (active) | EC50 [13]: > 180 µM (inactive) | IC50 (SUMO-activating enzyme [14]): 1 µM (active) | IC50 [15]: > 50 µM (not active) | AC50 [16]: 6.18 µM (active) | EC50 [17]: 0.401 µM (active) | EC50 [18]: > 160 µM (inactive)

COC(=O)c1c(-c2cc(OC)c(OC)c(OC)c2)c2ccc(OCc3ccccn3)cc2c(=O)n1-c1ccc(N)cc1
AC50 [19]: 5.62 µM (inconclusive)
